From patent US20100075935A1, “XANTHINE MODULATORS OF ADENOSINE A1 RECEPTOR” (Auspex Pharmaceuticals, Inc., priority 2008, published 2010)

What was measured:
[1] = In vitro liver microsomal stability assay; type: in vitro ADME; conditions: human liver microsomes 0.5 mg/mL, 1 μM compound, 37° C., NADPH-generating system, compared with non isotopically enriched rolofylline, '+' marks one bin of −25%-0%, 0%-50%, 50%-150%
Protocol: Liver microsomal stability assays were conducted at 0.5 mg per mL liver microsome protein with an NADPH-generating system in 2% NaHCO3 (2.2 mM NADPH, 25.6 mM glucose 6-phosphate, 6 units per mL glucose 6-phosphate dehydrogenase and 3.3 mM MgCl2). Test compounds were prepared as solutions in 20% acetonitrile-water and added to the assay mixture (final assay concentration 1 μM) and incubated at 37° C. Final concentration of acetonitrile in the assay should be <1%. […] were taken out at times 0, 7.5, 15, 22.5, 30 minutes, and diluted with ice cold acetonitrile (200 μL) to stop the reactions. Samples were centrifuged at 12,000 RPM for 10 min to precipitate proteins. Supernatants were transferred to micro centrifuge tubes and stored for LC/MS/MS analysis of the degradation half-life of the test compounds. […] The degradation half-lives of Examples 1 through 4 (isotopically enriched compounds) as compared with non isotopically enriched rolofylline are shown in Table 1.

[2] = test system: acute heart failure patients; conditions: cited from earlier work
[3] = rolofylline 30 mg daily for 3 days

[2H]C([2H])([2H])C([2H])([2H])C([2H])([2H])n1c(=O)c2[nH]c(C34CC5CC(CC3C5)C4)nc2n(CCC)c1=O [Example 4, 8-(Noradamantyl)-1-(d7-propyl)-3-propyl-3,7-dihydro-purine-2,6-dione]
% increase of HLM degradation half-life [1]: + (−25%-0%)

CCCn1c(=O)c2[nH]c(C34CC5CC(CC3C5)C4)nc2n(CCC)c1=O [Rolofylline, 8-(hexahydro-2,5-methano-pentalen-3a-yl)-1,3-dipropyl-3,7-dihydro-purine-2,6-dione]
urine output at 6 hours ([2]; acute heart failure patients, 6 hours): increased urine output at 6 hours | overall urine output over 24 hours ([2]; acute heart failure patients, 24 hours): did not increase overall urine output over 24 hours | patients with persistent renal impairment ([2]; rolofylline 30 mg daily for 3 days, acute heart failure patients): 8% | dyspnea improvement versus placebo [2, 3]: superior to placebo | instances of death, heart failure readmission, worsening heart failure or persistent renal impairment versus placebo [2, 3]: less instances

[2H]C([2H])([2H])C([2H])([2H])C([2H])([2H])n1c(=O)c2[nH]c(C34CC5CC(CC3C5)C4)nc2n(C([2H])([2H])C([2H])([2H])C([2H])([2H])[2H])c1=O [Example 2, 8-(Noradamantyl)-1-(d7-propyl)-3-(d7-propyl)-3,7-dihydro-purine-2,6-dione]
% increase of HLM degradation half-life [1]: + (−25%-0%)

[2H]C([2H])(CC)n1c(=O)c2[nH]c(C34CC5CC(CC3C5)C4)nc2n(CCC)c1=O [Example 3, 8-(Noradamantyl)-1-(1,1-d2-propyl)-3-propyl-3,7-dihydro-purine-2,6-dione]
% increase of HLM degradation half-life [1]: + (−25%-0%)

[2H]C([2H])([2H])C([2H])([2H])C([2H])([2H])n1c(=O)n(CCC)c(=O)c2[nH]c(C34CC5CC(CC3C5)C4)nc21 [Example 1, 8-(Noradamantyl)-1-propyl-3-(d7-propyl)-3,7-dihydro-purine-2,6-dione]
% increase of HLM degradation half-life [1]: + (−25%-0%)
